Consider 22 compounds from patent US20250049929A1, “NOVEL TETRAHYDROQUINOLINES AND PROTEOLYSIS TARGETING CHIMERA (PROTACS) COMPRISING THEM AS DEGRADERS OF SMARCA” (Boehringer Ingelheim International GmbH, priority 2021, published 2025).

The target of assay [1] is T1, SMARCA2 (Homo sapiens, UniProt P51531).
T1 construct: endogenous in cells; host or cells: RKO cells (CRL-2577, ATCC)
The assay is described as follows: SMARCA2 degradation analysis by imaging in RKO cells (DC50 A2). Format: cell-based. The note with it: tables 69, 70, 73, 76-78. The procedure: (§1) Determination of SMARCA2 and SMARCA4 Degradation (DC50 A2 and A4 [nM])
(§2) Protein Degradation Assays for SMARCA2 and SMARCA4
(§3) For degradation analysis by imaging, 1250 RKO cells (CRL-2577, ATCC) per well were seeded into 60 μL DMEM (Sigma Aldrich) supplemented with 10% FBS (Hyclone) in 384-well flat bottom plates (CellCarrier Ultra, Perkin Elmer) and incubated at 37° C. and 5% CO2 in a humidified atmosphere overnight. Compounds were added the next day using an Access Labcyte Workstation with a Labcyte Echo 550 or 555 acoustic dispenser and incubated with the cells for 4 or 24 h. Cells were fixed by adding 25 μL fixation buffer (7.4% formaldehyde (Sigma Aldrich F8775), 0.2% Triton TX100 (Sigma Aldrich F93443) in PBS) for 15 minutes at room temperature. After aspirating the fixing solution, the cells were washed once with 25 μL PBS and 25 μL of Blocking Buffer (10% Goat Serum in PBS) were added to each well and incubated for 30 minutes. Cells were washed with PBS and incubated with 20 μL mouse anti-Smarca4 (BRG1) antibody (Cell Signaling #52251) or rabbit anti-Smarca2 (BRM) antibody (Sigma Aldrich HPA029981) in blocking solution (PBS with 10% FCS) for ca. 2-4 h at RT. For detection of the nuclei, 25 μL of 5 μg/mL Hoechst 33342 (stock 10 mg/mL in H2O; Invitrogen H1399) were added together with Alexa Fluor 647 goat anti-mouse IgG (Invitrogen A-21235) or Alexa Fluor 488 goat anti-rabbit IgG (Invitrogen A-11034) in blocking solution and incubated for 60 min at RT. The cell layer was washed with 25 μL PBS, the wells were filled with 25 μL PBS and the plates sealed with an adhesive sheet. The mean intensity at 488 or 647 nm in the nucleus was measured using an Opera Phenix Plus High-Content Screening System (Perkin Elmer), values were normalized to the background and DMSO control and DC50 values were calculated and analyzed using a four-parametric logistic model.

The target of assay [2] is T2, SMARCA4 (Homo sapiens, UniProt P51532).
T2 construct: endogenous in cells; host or cells: RKO cells (CRL-2577, ATCC)
The assay is described as follows: SMARCA4 degradation analysis by imaging in RKO cells (DC50 A4). Format: cell-based. The note with it: tables 69, 70, 73, 76-78. On the procedure:
as §1, §2, §3

T1 sequence (P51531 whole entry): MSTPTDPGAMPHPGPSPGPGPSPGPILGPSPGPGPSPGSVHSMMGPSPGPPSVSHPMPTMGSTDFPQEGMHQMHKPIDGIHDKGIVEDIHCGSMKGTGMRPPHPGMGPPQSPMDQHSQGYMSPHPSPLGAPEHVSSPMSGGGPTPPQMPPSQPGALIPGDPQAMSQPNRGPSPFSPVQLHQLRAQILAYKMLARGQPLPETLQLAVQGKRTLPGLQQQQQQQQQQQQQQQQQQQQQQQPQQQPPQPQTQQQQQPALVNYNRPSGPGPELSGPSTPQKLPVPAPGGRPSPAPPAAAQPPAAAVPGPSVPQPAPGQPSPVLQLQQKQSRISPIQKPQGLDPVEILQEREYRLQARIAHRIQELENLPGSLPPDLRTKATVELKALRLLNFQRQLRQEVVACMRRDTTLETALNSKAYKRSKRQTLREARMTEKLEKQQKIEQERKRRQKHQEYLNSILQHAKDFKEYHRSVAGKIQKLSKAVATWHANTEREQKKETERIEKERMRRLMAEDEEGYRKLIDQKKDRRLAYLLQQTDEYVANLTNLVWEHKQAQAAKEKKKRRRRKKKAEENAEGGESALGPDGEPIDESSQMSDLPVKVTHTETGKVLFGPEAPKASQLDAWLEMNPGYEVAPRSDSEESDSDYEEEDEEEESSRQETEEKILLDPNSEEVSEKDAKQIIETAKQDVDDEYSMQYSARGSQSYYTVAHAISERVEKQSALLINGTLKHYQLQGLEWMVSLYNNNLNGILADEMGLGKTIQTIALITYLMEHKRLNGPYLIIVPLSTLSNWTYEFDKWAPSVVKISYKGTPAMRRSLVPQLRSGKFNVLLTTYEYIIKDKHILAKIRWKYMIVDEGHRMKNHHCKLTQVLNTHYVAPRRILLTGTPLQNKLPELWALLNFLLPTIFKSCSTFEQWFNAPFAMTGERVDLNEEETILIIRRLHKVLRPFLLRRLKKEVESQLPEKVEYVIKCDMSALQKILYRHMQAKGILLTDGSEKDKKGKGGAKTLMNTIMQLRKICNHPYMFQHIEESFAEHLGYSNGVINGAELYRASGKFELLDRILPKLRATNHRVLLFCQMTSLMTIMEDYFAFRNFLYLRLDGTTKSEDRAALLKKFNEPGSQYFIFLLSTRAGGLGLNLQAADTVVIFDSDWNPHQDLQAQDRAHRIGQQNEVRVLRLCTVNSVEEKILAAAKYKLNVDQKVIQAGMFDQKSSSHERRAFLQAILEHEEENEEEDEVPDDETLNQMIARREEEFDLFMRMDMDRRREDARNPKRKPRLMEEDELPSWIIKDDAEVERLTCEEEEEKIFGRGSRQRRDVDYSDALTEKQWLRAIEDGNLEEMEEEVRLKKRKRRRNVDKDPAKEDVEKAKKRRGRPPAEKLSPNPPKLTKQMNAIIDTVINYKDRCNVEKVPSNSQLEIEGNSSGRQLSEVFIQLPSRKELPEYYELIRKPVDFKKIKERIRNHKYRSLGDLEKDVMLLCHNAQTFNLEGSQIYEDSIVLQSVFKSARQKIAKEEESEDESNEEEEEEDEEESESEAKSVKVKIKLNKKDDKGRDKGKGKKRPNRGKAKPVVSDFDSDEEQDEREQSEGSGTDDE
T2 sequence (P51532 whole entry): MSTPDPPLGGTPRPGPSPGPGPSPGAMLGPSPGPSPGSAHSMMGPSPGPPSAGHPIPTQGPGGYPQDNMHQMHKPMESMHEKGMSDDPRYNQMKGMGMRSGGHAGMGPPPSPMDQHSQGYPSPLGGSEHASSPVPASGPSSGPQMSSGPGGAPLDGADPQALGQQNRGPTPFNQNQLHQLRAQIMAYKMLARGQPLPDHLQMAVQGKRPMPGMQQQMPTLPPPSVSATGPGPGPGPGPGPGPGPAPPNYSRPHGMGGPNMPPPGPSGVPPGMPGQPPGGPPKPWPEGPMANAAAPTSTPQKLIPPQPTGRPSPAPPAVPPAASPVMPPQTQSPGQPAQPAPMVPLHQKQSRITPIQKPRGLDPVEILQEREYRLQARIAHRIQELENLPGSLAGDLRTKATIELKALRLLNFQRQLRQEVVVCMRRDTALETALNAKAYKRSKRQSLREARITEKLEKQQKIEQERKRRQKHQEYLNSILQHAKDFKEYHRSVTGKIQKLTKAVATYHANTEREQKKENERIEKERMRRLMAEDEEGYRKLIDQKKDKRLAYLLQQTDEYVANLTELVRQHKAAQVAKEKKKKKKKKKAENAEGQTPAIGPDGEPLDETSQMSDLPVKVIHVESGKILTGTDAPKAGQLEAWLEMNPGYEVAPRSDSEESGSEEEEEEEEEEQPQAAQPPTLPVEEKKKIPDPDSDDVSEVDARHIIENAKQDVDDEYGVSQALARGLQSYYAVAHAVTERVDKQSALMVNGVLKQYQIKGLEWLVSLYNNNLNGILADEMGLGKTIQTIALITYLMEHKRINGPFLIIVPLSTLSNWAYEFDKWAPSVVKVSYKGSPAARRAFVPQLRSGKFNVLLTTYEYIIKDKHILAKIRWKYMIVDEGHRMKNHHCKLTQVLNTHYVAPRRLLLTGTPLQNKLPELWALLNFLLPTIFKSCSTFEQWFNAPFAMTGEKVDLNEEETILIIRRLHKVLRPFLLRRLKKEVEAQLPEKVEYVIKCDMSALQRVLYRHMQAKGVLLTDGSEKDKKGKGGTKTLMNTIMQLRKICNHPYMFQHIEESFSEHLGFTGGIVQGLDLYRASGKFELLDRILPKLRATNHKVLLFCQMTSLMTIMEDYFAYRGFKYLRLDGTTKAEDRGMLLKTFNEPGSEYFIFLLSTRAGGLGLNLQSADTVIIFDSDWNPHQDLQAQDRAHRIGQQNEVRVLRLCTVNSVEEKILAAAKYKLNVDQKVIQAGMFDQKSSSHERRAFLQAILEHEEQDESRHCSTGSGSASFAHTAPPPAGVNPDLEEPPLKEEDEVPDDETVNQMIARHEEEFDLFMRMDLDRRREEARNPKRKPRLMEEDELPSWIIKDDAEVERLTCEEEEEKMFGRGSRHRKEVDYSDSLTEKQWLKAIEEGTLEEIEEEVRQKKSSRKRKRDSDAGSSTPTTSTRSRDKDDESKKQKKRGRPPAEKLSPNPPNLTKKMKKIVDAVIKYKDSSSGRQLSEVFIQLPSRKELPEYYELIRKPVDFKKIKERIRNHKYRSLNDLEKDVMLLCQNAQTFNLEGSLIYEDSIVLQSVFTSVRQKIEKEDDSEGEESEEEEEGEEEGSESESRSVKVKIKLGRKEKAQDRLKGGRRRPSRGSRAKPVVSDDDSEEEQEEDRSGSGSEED

For the compound `CCn1c2cc(C3CCN(CCCCC[C@H](NC(=O)[C@@H]4C[C@@H](O)CN4C(=O)[C@@H](NC(=O)C4(F)CC4)C(C)(C)C)c4ccc(-c5scnc5C)cc4)CC3)ccc2n2c3cccc(Br)c3c(=O)nc12` [Compound 42ba], the half-maximal degradation concentration (DC50) (as a rule, the midpoint of the concentration-degradation curve) was found to be 4 nM in assay [1] and 22 nM in assay [2].
As for `Cc1ncsc1-c1ccc([C@H](COCCN2CCC(c3ccc4c(c3)n(C3CCCC3)c3nc(=O)c5c(Br)cccc5n43)CC2)NC(=O)[C@@H]2C[C@@H](O)CN2C(=O)[C@@H](NC(=O)C2(C)CC2)C(C)(C)C)cc1` [Compound 42bb], the results for the 50% degradation concentration (DC50) in assay [1] and in assay [2] were 17 nM and 142 nM, respectively.
Consider `Cc1ncsc1-c1ccc([C@H](COCCN2CCC(c3ccc4c(c3)n(C3CCCC3)c3nc(=O)c5c(Br)cccc5n43)CC2)NC(=O)[C@@H]2C[C@@H](O)CN2C(=O)[C@@H](NC(=O)C2(C(F)(F)F)CC2)C(C)(C)C)cc1` [Compound 42bc], for which the 50% degradation concentration (DC50) in assay [1] amounted to 19 nM; in assay [2], 133 nM.
The like results for `Cc1ncsc1-c1ccc([C@H](COCCN2CCC(c3ccc4c(c3)n(C3CCCC3)c3nc(=O)c5c(Br)cccc5n43)CC2)NC(=O)[C@@H]2C[C@@H](O)CN2C(=O)[C@@H](NC(=O)C2(C3CC3)CC2)C(C)(C)C)cc1` [Compound 42bd] were, in that order, 11 nM and 64 nM.
The like results for `Cc1ncsc1-c1ccc([C@H](COCCN2CCC(c3ccc4c(c3)n(C3CCCC3)c3nc(=O)c5c(Br)cccc5n43)CC2)NC(=O)[C@@H]2C[C@@H](O)CN2C(=O)[C@@H](NC(=O)C2(C#N)CC2)C(C)(C)C)cc1` [Compound 42be] were, in that order, 12 nM and 67 nM.
In the same order, the values of `COC(=O)C1(C(=O)N[C@H](C(=O)N2C[C@H](O)C[C@H]2C(=O)N[C@@H](COCCN2CCC(c3ccc4c(c3)n(C3CCCC3)c3nc(=O)c5c(Br)cccc5n43)CC2)c2ccc(-c3scnc3C)cc2)C(C)(C)C)CC1` [Compound 42bf] are 8 nM and 87 nM.
As to `Cc1ncsc1-c1ccc([C@H](COCCN2CCC(c3ccc4c(c3)n(C3CCCC3)c3nc(=O)c5c(Br)cccc5n43)CC2)NC(=O)[C@@H]2C[C@@H](O)CN2C(=O)[C@@H](NC(=O)C23CCCCC2C3)C(C)(C)C)cc1` (some centres unmarked) [Compound 42bh], the DC50 was found to be 6 nM in assay [1] and 153 nM in assay [2].
For the compound `Cc1ncsc1-c1ccc([C@H](CCCN2CCC(c3ccc4c(c3)n(C3CCCC3)c3nc(=O)c5c(N)cccc5n43)CC2)NC(=O)[C@@H]2C[C@@H](O)CN2C(=O)[C@@H](NC(=O)C2(N3CCCC3)CC2)C(C)(C)C)cc1` [Compound 42bi], the values for the half-maximal degradation concentration (DC50) in assay [1] and in assay [2] were 3 nM and 6 nM, respectively.
Take `CC(=O)O[C@@H]1C[C@@H](C(=O)N[C@@H](CCCCCN2CCC(c3ccc4c(c3)n(C3CCCC3)c3nc(=O)c5c(Br)cccc5n43)CC2)c2ccc(-c3scnc3C)cc2)N(C(=O)[C@@H](NC(=O)C2(F)CC2)C(C)(C)C)C1` [Compound 42bj]: the figures for the 50% degradation concentration (DC50) in assay [1] and in assay [2] were 8 nM and 83 nM, respectively.
For `CCCCC(=O)O[C@@H]1C[C@@H](C(=O)N[C@@H](CC[C@H](C)CCN2CCC(c3ccc4c(c3)n(C3CCCC3)c3nc(=O)c5c(Br)cccc5n43)CC2)c2ccc(-c3scnc3C)cc2)N(C(=O)[C@@H](NC(=O)C2(F)CC2)C(C)(C)C)C1` [Compound 42bk], the 50% degradation concentration (DC50) in assay [1] amounted to 3 nM; in assay [2] it was 60 nM.
Consider `Cc1ncsc1-c1ccc([C@H](CCCCCN2CCC(c3ccc4c(c3)n(C3CCCC3)c3nc(=O)c5c(Br)cccc5n43)CC2)NC(=O)[C@@H]2C[C@@H](O)CN2C(=O)[C@@H](NC(=O)C2(F)CC2)C(C)(C)C2CC2)cc1` [Compound 42c], for which the results for the half-maximal degradation concentration (DC50) in assay [1] and in assay [2] were 0.7 nM and 11 nM, respectively.
In the case of `Cc1ncsc1-c1ccc([C@H](CC[C@@H](C)CCN2CCC(c3ccc4c(c3)n(C3CCCC3)c3nc(=O)c5c(Br)cccc5n43)CC2)NC(=O)[C@@H]2C[C@@H](O)CN2C(=O)[C@@H](NC(=O)C2(F)CC2)C(C)(C)C)cc1` [Compound 42d], the DC50 came to 0.7 nM in assay [1] and 7 nM in assay [2].
With `Cc1ncsc1-c1ccc([C@H](CCC(O)CCN2CCC(c3ccc4c(c3)n(C3CCCC3)c3nc(=O)c5c(Br)cccc5n43)CC2)NC(=O)[C@@H]2C[C@@H](O)CN2C(=O)[C@@H](NC(=O)C2(F)CC2)C(C)(C)C)cc1` (some centres unmarked) [Compound 42e], the DC50 is 4.1 nM in assay [1] and 80 nM in assay [2].
Consider `Cc1ncsc1-c1ccc([C@H](CCCCCN2CCC(c3ccc4c(c3)n([C@H]3CC[C@@H](O)C3)c3nc(=O)c5c(Br)cccc5n43)CC2)NC(=O)[C@@H]2C[C@@H](O)CN2C(=O)[C@@H](NC(=O)C2(F)CC2)C(C)(C)C)cc1` [Compound 42f], for which the DC50 in assay [1] was 2 nM; in assay [2], 46 nM.
The like results for `Cc1ncsc1-c1ccc([C@H](CCC(C)(C)CCN2CCC(c3ccc4c(c3)n(C3CCCC3)c3nc(=O)c5c(Br)cccc5n43)CC2)NC(=O)[C@@H]2C[C@@H](O)CN2C(=O)[C@@H](NC(=O)C2(F)CC2)C(C)(C)C)cc1` [Compound 42g] were, in that order, 3 nM and 40 nM.
Regarding `Cc1ncsc1-c1ccc([C@H](CCCCCN2CCC(c3ccc4c(c3)n(C3CCCC3)c3nc(=O)c5c(Br)cccc5n43)CC2)NC(=O)[C@@H]2C[C@@H](O)CN2C(=O)[C@@H](NC(=O)C2(F)CC2)C(C)(C)C)cc1` [Compound 42h], the figures for the DC50 in assay [1] and in assay [2] were 0.3 nM and 4 nM, respectively.
In the same order, the values of `Cc1ncsc1-c1ccc([C@H](COC(C)(C)CN2CCCN(c3ccc4c(c3)n(C3CCCC3)c3nc(=O)c5c(Br)cccc5n43)CC2)NC(=O)[C@@H]2C[C@@H](O)CN2C(=O)[C@@H](NC(=O)C2(F)CC2)C(C)(C)C)cc1` [Compound 42i] are 9 nM and 24 nM.
Consider `CCC(C)(C)[C@H](NC(=O)C1(F)CC1)C(=O)N1C[C@H](O)C[C@H]1C(=O)N[C@@H](COC(C)(C)CN1CCN(c2ccc3c(c2)n(C2CCCC2)c2nc(=O)c4c(Br)cccc4n32)CC1)c1ccc(-c2scnc2C)cc1` [Compound 42j], for which the figures for the DC50 in assay [1] and in assay [2] were 4 nM and more than 833 nM, respectively.
In the case of `Cc1ncsc1-c1ccc([C@H](COC(C)(C)CN2CCC(c3ccc4c(c3)n(C3CCCC3)c3nc(=O)c5c(Br)cccc5n43)CC2)NC(=O)[C@@H]2C[C@@H](O)CN2C(=O)[C@@H](NC(=O)C2(F)CC2)C(C)(C)C)cc1` [Compound 42l], the figures for the half-maximal degradation concentration (DC50) in assay [1] and in assay [2] were 3 nM and more than 833 nM, respectively.
In the same order, the values of `Cc1ncsc1-c1ccc([C@H](CO[C@H](C)CN2CCC(c3ccc4c(c3)n(C3CCCC3)c3nc(=O)c5c(Br)cccc5n43)CC2)NC(=O)[C@@H]2C[C@@H](O)CN2C(=O)[C@@H](NC(=O)C2(F)CC2)C(C)(C)C)cc1` [Compound 42m] are 4 nM and more than 833 nM.
In the same order, the values of `Cc1ncsc1-c1ccc([C@H](COC(C)(C)CN2CCC(c3ccc4c(c3)n(C3CCCC3)c3nc(=O)c5c(Br)cccc5n43)CC2)NC(=O)[C@@H]2C[C@@H](O)CN2C(=O)[C@@H](NC(=O)C2(F)CC2)C2(C)CCCC2)cc1` [Compound 42n] are 3 nM and 800 nM.
As for `Cc1ncsc1-c1ccc([C@H](COCCN2CCC(c3ccc4c(c3)n(C3CCCC3)c3nc(=O)c5c(Br)cccc5n43)CC2)NC(=O)[C@@H]2C[C@@H](O)CN2C(=O)[C@@H](NC(=O)C2(F)CC2)C(C)(C)C)cc1` [Compound 42o], the DC50 is 5 nM in assay [1] and 90 nM in assay [2].
